pIC50: −log10 of the molar value. Like-named read-outs stand apart in the source and are kept apart here.
How the values were obtained:
[1] = tested on: 293T human kidney epithelial cells; assay: Cytotoxicity test (MTT) on 293T cells; settings: read-out: median cytotoxic concentration CC50; 293T cells, MTT assay, 24 h
Protocol: (§1) The cytotoxic activity in vitro was measured by the colorimetric MTT assay. […] For the cytotoxicity assay, 20 μL of MTT (5 mg/mL) was added per well 4 h before the end of the incubation. After removing the supernatant, 200 μL DMSO was added to dissolve the formazan crystals. The absorbance at λ 570 nm was read on an LX300 Epson Diagnostic microplate reader, untreated cells were used as negative controls.

HepG2 cells = assay: MTT antiproliferative assay, HepG2; format: cell-based, human; settings: read-out: In vitro antiproliferative activity IC50, HepG2
Protocol: (§2) IC50 values of the test compounds against A549, MCF-7, Hela and HepG2 cells were obtained from State Key Laboratory of Pharmaceutical Biotechnology, Nanjing University, and were determined by a standard (MTT)-based colorimetric assay (Beyotime Inst. Biotech., Nanjing, China). Tumor cell lines were grown to mid-log phase and then diluted to […] making sure they were seeded in 96-well plates (Philas, Nanjing, China) at a density of 5 × 10^3–1 × 10^4 cells per well. The outer wells containing 1 × PBS solution of the plate are not used for the assay to avoid the possibility of edge effects. The plate was incubated at 37 °C in a 5% CO2 incubator in DMEM containing 10% fetal bovine serum (FBS, Gibco, Waltham, MA, USA) for 24 h. Then, we added a 100-μL series concentration of drug-containing medium into the wells to maintain the final concentration of drug as 100, 10, 1 and 0.1 μmol/L. After 12 h, cell survival was determined by the addition of a MTT (3-(4,5-dimethylthiazol-2-yl)-2,5-diphenyl trtrazolium bromide) solution (10 μL of 5 mg/mL MTT in 1 × PBS). We waited for 4 h proliferation, discarded the medium and quickly added 150 μL DMSO per well, shaking the plates well for 10 min to ensure complete dissolution. Optical absorbance was measured at 570 nm on a microplate reader (Bio-Rad, Hercules, CA, USA). Survival ratios are expressed in percentages with respect to untreated cells. The experiments were replicated at least three times to verify the methodology reproducibility when using the above-mentioned conditions.

[2] = target: epidermal growth factor receptor (EGFR) (Homo sapiens, UniProt P00533); assay: EGFR kinase inhibition, solid-phase ELISA assay
Protocol: All these newly synthesized compounds were evaluated for their inhibitory activities against EGFR kinases using a solid-phase ELISA assay.
EGFR tyrosine kinase activity was determined by an enzyme linked-immunosorbent assay (ELISA) in 96-well plates precoated in a 10 mL reaction volume including 4 mL diluted test compounds, 4 mL substrate and 2 mL ATP. […] The plates were then aspirated and washed twice with 200 mL 0.9% (w/v) NaCl, and incorporation of Pi was determined with an LX300 Epson Diagnostic microplate reader. […] The experiments were replicated at least three times to verify the methodology reproducibility when using the above-mentioned conditions.

A549 cells = assay: MTT antiproliferative assay, A549; format: cell-based, human; settings: read-out: In vitro antiproliferative activity IC50, A549
Protocol: as §2

HeLa cells [3] = assay: MTT antiproliferative assay, HeLa; format: cell-based, human; settings: read-out: In vitro antiproliferative activity IC50, HeLa
Protocol: as §2

MCF-7 cells = assay: MTT antiproliferative assay, MCF-7; format: cell-based, human
Protocol: as §2

EGFR = settings: read-out: EGFR inhibitory activity IC50, cited from earlier work
[4] = Cytotoxicity test (MTT) on 293T cells; settings: human, 293T human kidney epithelial cells
Protocol: as §1

HeLa cells [5] = assay: Cell apoptosis assay by flow cytometry (Annexin V-FITC/PI); format: cell-based, human; settings: 24 h
Protocol: To verify whether the inhibition of cell growth of HeLa cell lines was related to cell apoptosis, we decided to use flow cytometry with an Annexin V-FITC/PI Apoptosis Detection Kit to […] the HeLa cell apoptosis with compound H20.
For Annexin V/PI assays, HeLa cells were stained with Annexin VFITC and PI and then monitored for apoptosis by flow cytometry. Briefly, 5 × 10^3 cells were seeded in 6-well plates for 24 h and then were treated with H20 (2.0, 4.0, 6.0, 8.0 μM) for 24 h. Then, cells were collected and washed twice with PBS and stained with 5 μL Annexin V-FITC and 5 μL PI (5 μg/mL) in 1× binding buffer (10 mM HEPES, pH 7.4, 140 mM […], 2.5 mM CaCl2) for 15 min at room temperature in the dark. Apoptotic cells were quantified using a BD Accuri C6 Flow Cytometer (Becton, Dickinson and Company, Clifton, NJ, USA). Statistical analysis was done using Flowjo 7.6.1 software. Both early apoptotic (AnnexinV-positive, PI-negative) and late apoptotic (double positive of Annexin V and PI) cells were detected.

[6] = read-out: Inhibition activity IC50 against EGFR, solid-phase ELISA assay
[7] = read-out: In vitro antiproliferative activity IC50, MCF-7

epidermal growth factor receptor (EGFR), sequence (P00533 25-1210): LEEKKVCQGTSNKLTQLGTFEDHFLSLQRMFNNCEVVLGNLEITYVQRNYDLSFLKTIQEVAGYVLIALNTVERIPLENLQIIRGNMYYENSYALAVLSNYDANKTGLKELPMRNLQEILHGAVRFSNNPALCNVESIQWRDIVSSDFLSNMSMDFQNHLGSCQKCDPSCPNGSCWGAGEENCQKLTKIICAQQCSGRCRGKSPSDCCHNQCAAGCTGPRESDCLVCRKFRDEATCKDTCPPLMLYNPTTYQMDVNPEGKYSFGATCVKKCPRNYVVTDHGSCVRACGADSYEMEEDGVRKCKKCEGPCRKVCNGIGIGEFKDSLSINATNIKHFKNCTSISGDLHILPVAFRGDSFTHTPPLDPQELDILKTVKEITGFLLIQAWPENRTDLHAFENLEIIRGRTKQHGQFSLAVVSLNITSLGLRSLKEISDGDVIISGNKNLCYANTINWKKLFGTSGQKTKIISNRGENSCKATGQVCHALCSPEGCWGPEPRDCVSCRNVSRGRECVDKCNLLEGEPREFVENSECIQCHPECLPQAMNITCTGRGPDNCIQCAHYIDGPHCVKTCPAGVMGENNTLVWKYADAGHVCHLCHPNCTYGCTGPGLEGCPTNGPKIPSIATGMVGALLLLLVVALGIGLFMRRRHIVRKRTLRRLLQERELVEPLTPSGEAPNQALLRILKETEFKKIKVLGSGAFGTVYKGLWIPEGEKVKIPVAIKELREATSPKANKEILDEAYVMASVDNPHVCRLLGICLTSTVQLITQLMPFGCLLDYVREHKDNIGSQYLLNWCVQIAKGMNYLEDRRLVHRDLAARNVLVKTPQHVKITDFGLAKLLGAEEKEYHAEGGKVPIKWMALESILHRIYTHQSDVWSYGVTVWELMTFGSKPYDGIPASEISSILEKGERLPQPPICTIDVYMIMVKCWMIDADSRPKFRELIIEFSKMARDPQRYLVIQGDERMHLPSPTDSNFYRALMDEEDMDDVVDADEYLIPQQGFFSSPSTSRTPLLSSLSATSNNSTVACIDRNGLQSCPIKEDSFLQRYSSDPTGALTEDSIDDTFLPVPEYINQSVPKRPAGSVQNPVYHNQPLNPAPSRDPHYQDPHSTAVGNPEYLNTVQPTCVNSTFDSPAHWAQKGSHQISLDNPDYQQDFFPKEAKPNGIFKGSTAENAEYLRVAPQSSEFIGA

COc1cccc(/C=N/NC(=O)c2ccc(N3N=C(c4cccc(C)c4)CC3c3ccc4ccccc4c3)cc2)c1 (stereo not shown) [Compound H3, (E)-N′-(3-Methoxybenzylidene)-4-(5-(naphthalen-2-yl)-3-(m-tolyl)-4,5-dihydro-1H-pyrazol-1-yl)benzo-hydrazide]
CC50 [1]: 92300 nM | pIC50 (HepG2 cells): 5.45 | pIC50 [2, 6]: 5.67 | pIC50 (A549 cells): 5.52 | pIC50 (HeLa cells [3]): 5.61 | pIC50 (MCF-7 cells; [7]): 5.54

COc1cccc(/C=N/NC(=O)c2ccc(N3N=C(c4ccc(C)cc4)CC3c3ccc4ccccc4c3)cc2)c1 (stereo not shown) [Compound H4, (E)-N′-(3-Methoxybenzylidene)-4-(5-(naphthalen-2-yl)-3-(p-tolyl)-4,5-dihydro-1H-pyrazol-1-yl)benzo-hydrazide]
CC50 [1]: 98800 nM | pIC50 (HepG2 cells): 6.29 | pIC50 [2, 6]: 6.64 | pIC50 (A549 cells): 6.37 | pIC50 (HeLa cells [3]): 6.35 | pIC50 (MCF-7 cells; [7]): 6.16

CC(=O)N1N=C(c2ccc(C(F)(F)F)cc2)CC1c1ccc(C(=O)OCC(C)n2c([N+](=O)[O-])cnc2C)cc1 (stereo not shown) [d]
pIC50 (EGFR; reported compounds of Figure 1): 6.59

COc1cccc(/C=N/NC(=O)c2ccc(N3N=C(c4ccccc4)CC3c3ccc4ccccc4c3)cc2)c1 (stereo not shown) [Compound H1, (E)-N′-(3-Methoxybenzylidene)-4-(5-(naphthalen-2-yl)-3-phenyl-4,5-dihydro-1H-pyrazol-1-yl)benzo-hydrazide]
CC50 [1]: 98600 nM | pIC50 (HepG2 cells): 4.54 | pIC50 [2, 6]: 5.07 | pIC50 (A549 cells): 4.84 | pIC50 (HeLa cells [3]): 4.65 | pIC50 (MCF-7 cells; [7]): 4.68

Cc1ccc(C2=NN(C3=NC(=O)CS3)C(c3ccc(Br)cc3)C2)cc1 (stereo not shown) [b]
pIC50 (EGFR; reported compounds of Figure 1): 6.62

COc1ccc(C2CC(c3ccc(C)c(C)c3)=NN2C(N)=S)cc1 (stereo not shown) [a]
pIC50 (EGFR; reported compounds of Figure 1): 7.15

Cc1ccc(C2=NN(C3=NC(=O)CS3)C(c3ccc4ccccc4c3)C2)cc1C (stereo not shown) [Compound e]
pIC50 (EGFR; reported compound of Figure 1): 6.92

COc1ccc(/C=N/NC(=O)c2ccc(N3N=C(c4ccccc4)CC3c3ccc4ccccc4c3)cc2)cc1 (stereo not shown) [Compound H17, (E)-N′-(4-Methoxybenzylidene)-4-(5-(naphthalen-2-yl)-3-phenyl-4,5-dihydro-1H-pyrazol-1-yl)benzo-hydrazide]
CC50 [1]: 94200 nM | pIC50 (HepG2 cells): 4.57 | pIC50 [2, 6]: 5.10 | pIC50 (A549 cells): 4.88 | pIC50 (HeLa cells [3]): 4.68 | pIC50 (MCF-7 cells; [7]): 4.74

Cc1ccc(C2=NN(c3ncc(-c4ccc(Cl)cc4)s3)C(c3ccc(F)cc3)C2)cc1C (stereo not shown) [c]
pIC50 (EGFR; reported compounds of Figure 1): 7.22

COc1cccc(/C=N/NC(=O)c2ccc(N3N=C(c4ccccc4C)CC3c3ccc4ccccc4c3)cc2)c1 (stereo not shown) [Compound H2, (E)-N′-(3-Methoxybenzylidene)-4-(5-(naphthalen-2-yl)-3-(o-tolyl)-4,5-dihydro-1H-pyrazol-1-yl)benzo-hydrazide]
CC50 [1]: 87400 nM | pIC50 (HepG2 cells): 6.17 | pIC50 [2, 6]: 6.19 | pIC50 (A549 cells): 5.85 | pIC50 (HeLa cells [3]): 6.22 | pIC50 (MCF-7 cells; [7]): 5.82

COc1ccc(/C=N/NC(=O)c2ccc(N3N=C(c4cccc(C)c4)CC3c3ccc4ccccc4c3)cc2)cc1 (stereo not shown) [Compound H19, (E)-N′-(4-Methoxybenzylidene)-4-(5-(naphthalen-2-yl)-3-(m-tolyl)-4,5-dihydro-1H-pyrazol-1-yl)benzo-hydrazide]
CC50 [1]: 92600 nM | pIC50 (HepG2 cells): 5.49 | pIC50 [2, 6]: 5.90 | pIC50 (A549 cells): 5.65 | pIC50 (HeLa cells [3]): 5.92 | pIC50 (MCF-7 cells; [7]): 5.61

COc1ccc(/C=N/NC(=O)c2ccc(N3N=C(c4ccc(C)cc4)CC3c3ccc4ccccc4c3)cc2)cc1 (stereo not shown) [Compound H20, (E)-N′-(4-Methoxybenzylidene)-4-(5-(naphthalen-2-yl)-3-(p-tolyl)-4,5-dihydro-1H-pyrazol-1-yl)benzo-hydrazide]
CC50 at 24 h [4]: 89900 nM | percentage of cell apoptosis (HeLa cells [5]; 2.0 μM): 28.7% | percentage of cell apoptosis (HeLa cells [5]; 4.0 μM): 34.9% | percentage of cell apoptosis (HeLa cells [5]; 6.0 μM): 47.2% | percentage of cell apoptosis (HeLa cells [5]; 8.0 μM): 58.12% | pIC50 (HepG2 cells; Homo sapiens): 6.68 | pIC50 [2]: 7.10 | melting point: 241 to 243 °C | pIC50 (A549 cells; Homo sapiens): 6.34 | pIC50 (HeLa cells [3]; Homo sapiens): 6.82 | pIC50 (MCF-7 cells; Homo sapiens, MCF7, read-out: In vitro antiproliferative activity IC50, MCF-7): 6.54

COc1ccc(/C=N/NC(=O)c2ccc(N3N=C(c4ccccc4C)CC3c3ccc4ccccc4c3)cc2)cc1 (stereo not shown) [Compound H18, (E)-N′-(4-Methoxybenzylidene)-4-(5-(naphthalen-2-yl)-3-(o-tolyl)-4,5-dihydro-1H-pyrazol-1-yl)benzo-hydrazide]
CC50 [1]: 90600 nM | pIC50 (HepG2 cells): 6.25 | pIC50 [2, 6]: 6.32 | pIC50 (A549 cells): 5.91 | pIC50 (HeLa cells [3]): 6.11 | pIC50 (MCF-7 cells; [7]): 5.79

From article PMC6273578, “Design, Synthesis and Biological Evaluation of Benzohydrazide Derivatives Containing Dihydropyrazoles as Potential EGFR Kinase Inhibitors” (Molecules, 2016)
